# System: batrachotoxin (BTX) binding site (binding site 2) of the sodium channel
# Assay: Bond test on the sodium channel, binding site 2 (BTX bond), [3H]-batrachotoxinin A20 α-benzoate displacement
# Conditions: rat cerebrocortex synaptosomes
row,SMILES,"BTX bond, 10 μM, % inhibition [%]"
1,"O=C(NCc1cccs1)C1=NOC2(CCN(C(=O)c3ccccc3Cl)CC2)C1 [Example 152, 8-(2-chloro-benzoyl)-1-oxa-2,8-diaza-spiro[4,5]dec-2-ene-3-carboxylic acid (thiophen-2-ylmethyl)-amide]",56
2,"O=C(NC1CCCC1)C1=NOC2(CCN(C(=O)c3cccnc3Oc3ccccc3)CC2)C1 [Example 153, 8-(2-phenoxy-pyridine-3-carbonyl)-1-oxa-2,8-diaza-spiro[4,5]dec-2-ene-3-carboxylic acid cyclopentylamide]",41
3,"CCOC(=O)C1CCCCN1C(=O)C1=NOC2(CCN(S(=O)(=O)c3ccc(Cl)s3)CC2)C1 (stereo not drawn) [Example 155, 1-[8-(5-chloro-thiophene-2-sulphonyl)-1-oxa-2,8-diaza-spiro[4,5]dec-2-ene-3-carbonyl]-piperidine-2-carboxylic acid ethyl ester]",48
4,"O=C(NCc1cccs1)C1=NOC2(CCN(S(=O)(=O)c3ccccc3Cl)CC2)C1 [Example 156, 8-(2-chloro-benzenesulphonyl)-1-oxa-2,8-diaza-spiro[4,5]dec-2-ene-3-carboxylic acid (thiophen-2-ylmethyl)-amide]",70
5,COc1ccc(OC)c(CN(Cc2ccco2)C(=O)C2=NOC3(CCN(S(=O)(=O)c4ccc(F)cc4)CC3)C2)c1 [Example 160],75
6,"CN(C)S(=O)(=O)N1CCC2(CC1)CC(C(=O)NC1CCCC1OCc1ccccc1)=NO2 (stereo not drawn) [Example 163, 8-dimethylsulphamoyl-1-oxa-2,8-diaza-spiro[4,5]dec-2-ene-3-acarboxylic cid (2-benzyloxy-cyclopentyl)-amide]",40
7,"COc1ccc(S(=O)(=O)N2CCC3(CC2)CC(C(=O)NC(C)Cc2ccc(Cl)cc2)=NO3)cc1 (stereo not drawn) [Example 164, 8-(4-methoxy-benzenesulphonyl)-1-oxa-2,8-diaza-spiro[4,5]dec-2-ene-3-carboxylic acid [2-(4-chloro-phenyl)-1-methyl-ethyl]-amide]",52
8,"O=C(NCc1ccccc1)C1=NOC2(CCN(C(=O)COc3cccc(Cl)c3)CC2)C1 [Example 166, 8-[2-(3-chloro-phenoxy)-acetyl]-1-oxa-2,8-diaza-spiro[4,5]dec-2-ene-3-carboxylic acid benzylamide]",58
9,"CC(Cc1ccc(Cl)cc1)NC(=O)C1=NOC2(CCN(S(=O)(=O)c3ccc(Cl)s3)CC2)C1 (stereo not drawn) [Example 168, 8-(5-chloro-thiophene-2-sulphonyl)-1-oxa-2,8-diaza-spiro[4,5]dec-2-ene-3-carboxylic acid [2-(4-chloro-phenyl)-1-methyl-ethyl]-amide]",69
10,"Cc1ccc(F)c(C(=O)N2CCC3(CC2)CC(C(=O)NCc2cccs2)=NO3)c1F [Example 170, 8-(2,6-difluoro-3-methyl-benzoyl)-1-oxa-2,8-diaza-spiro[4,5]dec-2-ene-3-carboxylic acid (thiophen-2-ylmethyl)-amide]",59
11,"O=C(NCc1ccccc1)C1=NOC2(CCN(C(=O)COCc3ccccc3)CC2)C1 [Example 171, 8-(2-benzyloxy-acetyl)-1-oxa-2,8-diaza-spiro[4,5]dec-2-ene-3-carboxylic acid benzylamide]",44
12,"O=C(Nc1ccccc1)C1=NOC2(CCN(C(=O)c3cccc(Cl)c3Cl)CC2)C1 [Example 172, 8-(2,3-dichloro-benzoyl)-1-oxa-2,8-diaza-spiro[4,5]dec-2-ene-3-carboxylic acid phenylamide]",60
13,"COc1ccc(Br)cc1S(=O)(=O)N1CCC2(CC1)CC(C(=O)NC1CCCC1)=NO2 [Example 173, 8-(5-bromo-2-methoxy-benzenesulphonyl)-1-oxa-2,8-diaza-spiro[4,5]dec-2-ene-3-carboxylic acid cyclopentylamide]",62
14,"O=C(C1=NOC2(CCN(S(=O)(=O)c3ccc(OC(F)(F)F)cc3)CC2)C1)N1CCN(CCCc2ccccc2)CC1 [Example 176, [4-(3-phenyl-propyl)-piperazin-l-yl]-[8-(4-trifluoromethoxy-benzenesulphonyl)-1-oxa-2,8-diaza-spiro [4,5]dec-2-en-3-yl]-methanone]",76
15,"Cc1onc(-c2c(F)cccc2Cl)c1C(=O)N1CCC2(CC1)CC(C(=O)NCc1ccccc1)=NO2 [Example 177, 8-[3-(2-chloro-6-fluorophenyl)-5-methyl-isoxazole-4-carbonyl]-1-oxa-2,8-diaza-spiro [4,5]dec-2-ene-3-carboxylic acid benzylamide]",45
16,"CCOC(=O)C1CCCCN1C(=O)C1=NOC2(CCN(C(=O)c3cc(C(C)(C)C)oc3C)CC2)C1 (stereo not drawn) [Example 179, 1-[8-(5-tert-butyl-2-methyl-furan-3-carbonyl)-1-oxa-2,8-diaza-spiro[4,5]dec-2-ene-3-carbonyl]-piperidine-2-carboxylic acid ethyl ester]",55

row,SMILES,"BTX bond, 10 μM, % inhibition [%]"
1,"O=C(NCc1ccccc1)C1=NOC2(CCN(C(=O)c3cccc(SC(F)F)c3)CC2)C1 [Example 180, 8-(3-difluoromethylsulphanyl-benzoyl)-1-oxa-2,8-diaza-spiro[4,5]dec-2-ene-3-carboxylic acid benzylamide]",57
2,"O=C(Nc1ccccc1)C1=NOC2(CCN(C(=O)c3ccc(Br)cc3)CC2)C1 [Example 181, 8-(4-bromo-benzoyl)-1-oxa-2,8-diaza-spiro[4,5]dec-2-ene-3-acarboxylic cid phenylamide]",50
3,"COc1ccc(S(=O)(=O)N2CCC3(CC2)CC(C(=O)NC2CC2c2ccccc2)=NO3)cc1 (stereo not drawn) [Example 182, 8-(4-methoxy-benzenesulphonyl)-1-oxa-2,8-diaza-spiro[4,5]dec-2-ene-3-carboxylic acid (2-phenyl-cyclopropyl)-amide]",47
4,O=C(NCc1cccs1)C1=NOC2(CCN(C(=O)CCCOc3ccccc3)CC2)C1 [Example 183],68
5,"O=C(NCc1cccs1)C1=NOC2(CCN(C(=O)c3ccc(F)c(Cl)c3)CC2)C1 [Example 184, 8-(3-chloro-4-fluorobenzoyl)-1-oxa-2,8-diaza-spiro[4,5]dec-2-ene-3-carboxylic acid (thiophen-2-ylmethyl)-amide]",73
6,"O=C(C1=NOC2(CCN(S(=O)(=O)c3ccc(F)cc3)CC2)C1)N1CCN(CCCc2ccccc2)CC1 [Example 186, [8-(4-fluoro-benzenesulphonyl)-1-oxa-2,8-diaza-spiro[4,5]dec-2-en-3-yl]-[4-(3-phenyl-propyl)-piperazin-1-yl]-methanone]",56
7,O=C(NC1CCCC1)C1=NOC2(CCN(C(=O)c3ccccc3COC(=O)c3ccccc3)CC2)C1 [Example 188],77
8,"CN(C)S(=O)(=O)N1CCC2(CC1)CC(C(=O)N1CCN(Cc3ccc(C(C)(C)C)cc3)CC1)=NO2 [Example 189, 3-[4-(4-tert-butyl-benzyl)-piperazine-1-carbonyl]-1-oxa-2,8-diaza-spiro[4,5]dec-2-ene-8-sulphonic acid dimethylamide]",69
9,O=C(NC1CCCC1OCc1ccccc1)C1=NOC2(CCN(S(=O)(=O)c3ccc(Cl)s3)CC2)C1 (stereo not drawn) [Example 191],75
10,"O=C(NCc1cccs1)C1=NOC2(CCN(C(=O)c3cccc4ccccc34)CC2)C1 [Example 192, 8-(naphthalene-1-carbonyl)-1-oxa-2,8-diaza-spiro[4,5]dec-2-ene-3-carboxylic acid (thiophen-2-ylmethyl)-amide]",87
11,"O=C(NCCCc1ccccc1)C1=NOC2(CCN(S(=O)(=O)c3ccc(F)cc3)CC2)C1 [Example 193, 8-(4-fluoro-benzenesulphonyl)-1-oxa-2,8-diaza-spiro[4,5]dec-2-ene-3-carboxylic acid (3-phenyl-propyl)-amide]",66
12,"O=C(NCC1COc2ccccc2O1)C1=NOC2(CCN(S(=O)(=O)c3ccc(Cl)s3)CC2)C1 (stereo not drawn) [Example 194, 8-(5-chloro-thiophene-2-sulphonyl)-1-oxa-2,8-diaza-spiro[4,5]dec-2-ene-3-carboxylic acid (2,3-dihydro-benzo[1,4]dioxin-2-ylmethyl)-amide]",68
13,"CCOC(=O)C1CCCCN1C(=O)C1=NOC2(CCN(C(=O)c3ccc(C(C)(C)C)cc3)CC2)C1 (stereo not drawn) [Example 195, 1-[8-(4-tert-butyl-benzoyl)-1-oxa-2,8-diaza-spiro[4,5]dec-2-ene-3-carbonyl]-piperidine-2-carboxylic acid ethyl ester]",85
14,O=C(NCCc1cccc(C(F)(F)F)c1)C1=NOC2(CCN(S(=O)(=O)c3ccc(F)cc3)CC2)C1 [Example 196],51
15,"Cc1onc(-c2c(Cl)cccc2Cl)c1C(=O)N1CCC2(CC1)CC(C(=O)NCc1cccs1)=NO2 [Example 197, 8-[3-(2,6-dichloro-phenyl)-5-methyl-isoxazole-4-carbonyl]-1-oxa-2,8-diaza-spiro[4,5]dec-2-ene-3-carboxylic acid (thiophen-2-ylmethyl)-amide]",70
16,O=C(NC1CCCC1OCc1ccccc1)C1=NOC2(CCN(S(=O)(=O)c3ccc(F)cc3)CC2)C1 (stereo not drawn) [Example 199],67

# Same assay, conditions: rat cerebrocortex synaptosomes, 10 µM
row,SMILES,"BTX bond, 10 μM, % inhibition [%]"
1,"COc1ccc(S(=O)(=O)N2CCC3(CC2)CC(C(=O)NC2CCCC2OCc2ccccc2)=NO3)cc1 (stereo not drawn) [Example 169, 8-(4-methoxy-benzenesulphonyl)-1-oxa-2,8-diaza-spiro[4,5]dec-2-ene-3-carboxylic acid (2-benzyloxy-cyclopentyl)-amide]",48
